Our source for the IC50 values is PMC6214812, “The mycosporine-like amino acids porphyra-334 and shinorine are antioxidants and direct antagonists of Keap1-Nrf2 binding” (Biochimie, 2018).

The target of assay [1] is T1, Kelch-like ECH-associated protein 1 (Keap1) (Homo sapiens, UniProt Q14145).
T1 construct: Kelch-repeat domain
Put plainly: FP competition with FITC-(βAla)-DEETGEF-OH; thermal shift (ΔTm […] °C at […]). It is filed as binding.

Assay [2] has as its target T1, Kelch-like ECH-associated protein 1 (Keap1). The assay is described as above. It counts as binding. The source holds these as a separate data set.

Like-named read-outs stand apart in the source and are kept apart here.

T1 sequence (Q14145 321-609 limits assumed): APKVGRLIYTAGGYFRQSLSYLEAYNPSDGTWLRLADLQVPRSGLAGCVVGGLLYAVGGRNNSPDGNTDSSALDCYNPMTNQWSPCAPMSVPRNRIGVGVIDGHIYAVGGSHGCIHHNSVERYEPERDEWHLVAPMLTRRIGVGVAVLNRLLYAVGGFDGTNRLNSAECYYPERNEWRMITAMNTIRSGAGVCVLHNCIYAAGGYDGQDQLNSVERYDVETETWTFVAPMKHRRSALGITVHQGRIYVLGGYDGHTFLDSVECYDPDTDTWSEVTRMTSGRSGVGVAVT

The IC50 is the concentration that gives 50% inhibition. In the case of `COC1=C(NCC(=O)O)C[C@@](O)(CO)C/C1=N\[C@@H](CO)C(=O)O` [shinorine], in assay [1], the IC50 was about 100 µM.
Regarding `COC1=C(NCC(=O)O)CC(O)(CO)CC1=NC(C(=O)O)C(C)O` (centres unmarked) [porphyra-334], the IC50 in assay [2] is about 100 µM.
